Data from ChEMBL document CHEMBL1151681, “New Naphthalenyl Glucosides from the Roots of Juglans mandshurica” (J Nat Prod, 1996).
Values after ≈ are worked out from the molar mass of the structure shown.

Tests used:
[1] = Cytotoxicity against human Hep3B cells by MTT assay; type: functional, cell-based, Hep 3B2
[2] = tested on: U-937; test: Cytotoxicity against human U937 cells by MTT assay; type: functional, cell-based

**Q.** Which IC50 [1] does the source give for `O=C(OC[C@H]1O[C@@H](Oc2ccc(O)c3cccc(O)c23)[C@H](O)[C@@H](O)[C@@H]1O)c1cc(O)c(O)c(O)c1` here?
**A.** The IC50 was > 100 µg/mL.

**Q.** And the IC50 [2]?
**A.** The IC50 was 30 µg/mL (≈ 61.2 µM).

**Q.** For `COc1cc(C(=O)OC[C@H]2O[C@@H](Oc3ccc(O)c4cccc(O)c34)[C@H](O)[C@@H](O)[C@@H]2O)cc(OC)c1O`, which IC50 [1] is on record?
**A.** Its IC50 is > 100 µg/mL.

**Q.** What about the IC50 [2] of the same compound?
**A.** The IC50 was 50 µg/mL (≈ 96.4 µM).
